{"source": "patent US12226443B2", "about": "“Polyphenol composition and method of its use and manufacture in the treatment of metabolic disorders” (Vidya Herbs, Inc., priority 2018, dated 2025)", "experiment": "DPPH scavenging assay", "conditions": "composition at 100 μg/ml", "description": "The free radical scavenging capacity of the composition was determined using DPPH scavenging assay (Braca et al. 2001). DPPH solution was prepared in 95% methanol. Freshly prepared DPPH solution was taken in test tubes and different concentration of the composition (20-100 μg/mL) were added and incubated for 20 min. The absorbance was read at 517 nm using a spectrophotometer. Blank was prepared containing the same volume of reaction mixture without any test samples. The percentage of scavenging was calculated using formula: % Scavenging=Ac−As/Ac×100 Where AC was the absorbance of the control (blank without extract) and As was the absorbance in the presence of the extract."}
{"smiles": "O=C1O[C@H]([C@@H](O)CO)C(O)=C1O", "note": "[ascorbic acid]", "values": [{"measurement": "DPPH radical scavenging, maximum activity", "result": 96.71, "unit": "%"}]}
